ChEMBL document CHEMBL1201862, “PubChem BioAssay data set” (2004)
The source made the active and inactive calls.

Legend:
[1] = target: T1, Delta-type opioid receptor (Homo sapiens, UniProt P41143); test: HTS Image-Based Screen for Antagonists of the DOR Receptor. [Related pubchem assays (depositor defined):AID1777, AID1785, AID1786, AID2133]; type: functional
Mu-type opioid receptor = Mu-type opioid receptor (Homo sapiens, UniProt P35372); test: HTS Image-Based Screen for Agonists of the MOR Receptor. [Related pubchem assays (depositor defined):AID1777, AID1785, AID1786, AID2133]; type: functional;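 further: imaging of beta-arrestin GFP recruitment into spots after receptor activation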
[2] = target: T2, Kappa-type opioid receptor (Homo sapiens, UniProt P41145); type: functional
[3] = target: T2, Kappa-type opioid receptor; type: functional; remark: listed apart in the source
[4] = target: T1, Delta-type opioid receptor; test: HTS Image-Based Screen for Agonists of the DOR Receptor. [Related pubchem assays (depositor defined):AID1777, AID1786, AID2133]; type: functional
Beta-galactosidase = Beta-galactosidase (Escherichia coli, UniProt Q8VNN2); type: functional
[5] = target: T3, Dual specificity protein phosphatase 3 (Homo sapiens, UniProt P51452); test: SAR VHR1 Fluorescent Assay for In Vitro dose response studies Set 2. [Related pubchem assays (depositor defined):AID1654, AID1661, AID1878]; type: functional
[6] = target: T4, Tyrosine-protein phosphatase non-receptor type 7 (Homo sapiens, UniProt P35236); test: redox-active compounds inhibiting HePTP phosphatase – biochemical, fluorescence, mechanism study (AID 2068); type: functional
T4 sequence (P35236 whole entry): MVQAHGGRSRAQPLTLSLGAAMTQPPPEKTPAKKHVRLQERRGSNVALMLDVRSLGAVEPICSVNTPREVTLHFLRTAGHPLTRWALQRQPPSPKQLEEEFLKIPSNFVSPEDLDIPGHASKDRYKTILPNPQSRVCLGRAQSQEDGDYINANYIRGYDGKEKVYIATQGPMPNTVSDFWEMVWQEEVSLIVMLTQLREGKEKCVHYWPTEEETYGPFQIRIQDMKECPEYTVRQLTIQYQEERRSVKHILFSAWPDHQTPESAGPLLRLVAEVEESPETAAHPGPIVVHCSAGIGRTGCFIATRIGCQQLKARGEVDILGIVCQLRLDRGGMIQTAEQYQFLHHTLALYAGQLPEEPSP

[7] = target: T3, Dual specificity protein phosphatase 3; test: SAR VHR1 absorbance Assay for In Vitro dose response studies. [Related pubchem assays (depositor defined):AID1654, AID1661, AID1878, AID1992, AID2004]
[8] = target: Eukaryotic translation initiation factor 4E (Mus musculus, UniProt P63073); test: blockers of eIF4G binding by eIF4E – biochemical, TR-FRET, dose response (AID 855); type: functional;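 further: potency for disrupting eIF4E binding to eIF4GI seen as loss of FRET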
[9] = target: T5, Small ubiquitin-related modifier 1 (Homo sapiens, UniProt P63165); test: SUMO1 protein interaction blockers, potency – biochemical, fluorescence polarization, uHTS hits, dose response (AID 624382); type: functional; conditions: read-out: IC50_Mean
[10] = target: 26S proteasome non-ATPase regulatory subunit 14 (Homo sapiens, UniProt O00487); test: inhibition of proteasome subunit RPN11 – biochemical, fluorescence polarization, uHTS hits, confirmation (AID 602368); type: functional
[11] = target: 72 kDa type IV collagenase (Homo sapiens, UniProt P08253); test: Dose Response validation of uHTS RPN11 inhibitor hits using a MMP-2 Fluorescence assay.; type: functional
[12] = target: T6, Tyrosine-protein phosphatase non-receptor type 22 (Homo sapiens, UniProt Q9Y2R2); type: functional
T6 sequence (Q9Y2R2 whole entry): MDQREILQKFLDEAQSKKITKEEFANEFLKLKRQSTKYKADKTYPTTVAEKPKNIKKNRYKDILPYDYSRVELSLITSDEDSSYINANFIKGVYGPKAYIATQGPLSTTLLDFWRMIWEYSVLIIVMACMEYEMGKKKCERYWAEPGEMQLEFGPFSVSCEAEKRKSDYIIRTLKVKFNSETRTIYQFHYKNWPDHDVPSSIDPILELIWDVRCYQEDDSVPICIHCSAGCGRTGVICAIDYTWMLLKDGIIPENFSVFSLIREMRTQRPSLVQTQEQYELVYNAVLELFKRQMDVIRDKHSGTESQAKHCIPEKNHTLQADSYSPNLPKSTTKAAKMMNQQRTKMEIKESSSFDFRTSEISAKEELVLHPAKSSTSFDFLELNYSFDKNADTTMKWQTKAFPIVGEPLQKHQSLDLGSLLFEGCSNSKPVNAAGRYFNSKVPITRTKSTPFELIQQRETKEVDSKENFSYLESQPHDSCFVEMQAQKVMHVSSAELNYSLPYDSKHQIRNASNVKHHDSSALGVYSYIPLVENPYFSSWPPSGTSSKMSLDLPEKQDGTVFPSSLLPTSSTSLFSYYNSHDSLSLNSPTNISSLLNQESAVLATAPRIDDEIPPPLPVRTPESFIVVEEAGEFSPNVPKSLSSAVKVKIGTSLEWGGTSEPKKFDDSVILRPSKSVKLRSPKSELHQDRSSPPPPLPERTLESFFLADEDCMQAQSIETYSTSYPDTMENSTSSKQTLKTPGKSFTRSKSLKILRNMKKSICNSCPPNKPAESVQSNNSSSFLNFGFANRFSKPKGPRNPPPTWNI

[13] = target: T7, Voltage-gated N-type calcium channel alpha-1B subunit/Amyloid beta A4 precursor protein-binding family A member 1 (Homo sapiens, UniProt Q00975+Q02410); type: protein assay
NS3 = NS3 (Hepatitis C virus, UniProt A3EZJ3); test: PubChem AID 2173; design: species or system Hepacivirus hominis
[14] = target: T6, Tyrosine-protein phosphatase non-receptor type 22; type: functional; remark: listed apart in the source
[15] = target: T7, Voltage-gated N-type calcium channel alpha-1B subunit/Amyloid beta A4 precursor protein-binding family A member 1; type: protein assay; remark: listed apart in the source
[16] = target: T3, Dual specificity protein phosphatase 3; test: VHR1 phosphatase inhibitors, biochemical (AID 1878)
[17] = target: T3, Dual specificity protein phosphatase 3; test: SAR VHR1 Fluorescent Assay for In Vitro dose response studies. [Related pubchem assays (depositor defined):AID1654, AID1661, AID1878, AID1992, AID2004, AID2070, AID2085]; type: functional
Prothrombin = Prothrombin (Bos taurus, UniProt P00735); test: thrombin protease inhibitors – biochemical, fluorescence polarization, uHTS hits, dose response (AID 602369); type: functional
[18] = target: T8, Dual specificity protein phosphatase 6 (Rattus norvegicus, UniProt Q64346); test: inhibition of rat DUSP6 enzyme activity – biochemical, in vitro, primary screen (AID 425)
T8 sequence (Q64346 whole entry): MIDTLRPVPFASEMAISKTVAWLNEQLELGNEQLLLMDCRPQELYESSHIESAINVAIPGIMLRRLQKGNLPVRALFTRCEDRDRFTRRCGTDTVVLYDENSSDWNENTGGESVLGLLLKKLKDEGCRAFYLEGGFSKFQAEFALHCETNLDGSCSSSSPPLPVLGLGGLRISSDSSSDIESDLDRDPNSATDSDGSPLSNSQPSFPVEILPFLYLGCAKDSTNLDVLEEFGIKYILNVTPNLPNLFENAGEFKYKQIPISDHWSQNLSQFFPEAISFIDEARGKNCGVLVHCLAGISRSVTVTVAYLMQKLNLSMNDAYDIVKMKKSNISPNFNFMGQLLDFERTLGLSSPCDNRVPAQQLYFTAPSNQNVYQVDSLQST

[19] = target: Induced myeloid leukemia cell differentiation protein Mcl-1 (Homo sapiens, UniProt Q07820); type: functional
[20] = target: T8, Dual specificity protein phosphatase 6; type: functional
[21] = target: T5, Small ubiquitin-related modifier 1; test: SUMO1 protein-protein binding blockers, potency – biochemical, FRET, dose response (AID 624383); type: functional; conditions: read-out: IC50_Mean
[22] = target: T4, Tyrosine-protein phosphatase non-receptor type 7; type: functional
[23] = target: T3, Dual specificity protein phosphatase 3; test: VHR1 phosphatase inhibitors, primary screen, biochemical, absorbance, uHTS (AID 1654)

T3 sequence (P51452 whole entry): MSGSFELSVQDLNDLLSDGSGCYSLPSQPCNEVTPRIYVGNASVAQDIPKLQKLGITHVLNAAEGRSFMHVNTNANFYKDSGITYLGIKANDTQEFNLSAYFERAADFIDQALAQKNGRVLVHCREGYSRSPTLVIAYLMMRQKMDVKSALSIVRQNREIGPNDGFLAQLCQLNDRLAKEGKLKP
T1 sequence (P41143 whole entry): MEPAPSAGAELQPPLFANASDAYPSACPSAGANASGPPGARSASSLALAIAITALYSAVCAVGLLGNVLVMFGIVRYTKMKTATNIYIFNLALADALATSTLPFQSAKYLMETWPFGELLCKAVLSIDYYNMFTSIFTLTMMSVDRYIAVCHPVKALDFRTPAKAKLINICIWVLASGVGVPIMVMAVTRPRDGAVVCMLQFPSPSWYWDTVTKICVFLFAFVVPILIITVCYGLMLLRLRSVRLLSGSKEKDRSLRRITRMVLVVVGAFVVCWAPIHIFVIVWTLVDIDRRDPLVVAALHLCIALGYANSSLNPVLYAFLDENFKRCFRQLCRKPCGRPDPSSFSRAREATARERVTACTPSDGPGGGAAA
T7 sequence (Q00975 whole entry): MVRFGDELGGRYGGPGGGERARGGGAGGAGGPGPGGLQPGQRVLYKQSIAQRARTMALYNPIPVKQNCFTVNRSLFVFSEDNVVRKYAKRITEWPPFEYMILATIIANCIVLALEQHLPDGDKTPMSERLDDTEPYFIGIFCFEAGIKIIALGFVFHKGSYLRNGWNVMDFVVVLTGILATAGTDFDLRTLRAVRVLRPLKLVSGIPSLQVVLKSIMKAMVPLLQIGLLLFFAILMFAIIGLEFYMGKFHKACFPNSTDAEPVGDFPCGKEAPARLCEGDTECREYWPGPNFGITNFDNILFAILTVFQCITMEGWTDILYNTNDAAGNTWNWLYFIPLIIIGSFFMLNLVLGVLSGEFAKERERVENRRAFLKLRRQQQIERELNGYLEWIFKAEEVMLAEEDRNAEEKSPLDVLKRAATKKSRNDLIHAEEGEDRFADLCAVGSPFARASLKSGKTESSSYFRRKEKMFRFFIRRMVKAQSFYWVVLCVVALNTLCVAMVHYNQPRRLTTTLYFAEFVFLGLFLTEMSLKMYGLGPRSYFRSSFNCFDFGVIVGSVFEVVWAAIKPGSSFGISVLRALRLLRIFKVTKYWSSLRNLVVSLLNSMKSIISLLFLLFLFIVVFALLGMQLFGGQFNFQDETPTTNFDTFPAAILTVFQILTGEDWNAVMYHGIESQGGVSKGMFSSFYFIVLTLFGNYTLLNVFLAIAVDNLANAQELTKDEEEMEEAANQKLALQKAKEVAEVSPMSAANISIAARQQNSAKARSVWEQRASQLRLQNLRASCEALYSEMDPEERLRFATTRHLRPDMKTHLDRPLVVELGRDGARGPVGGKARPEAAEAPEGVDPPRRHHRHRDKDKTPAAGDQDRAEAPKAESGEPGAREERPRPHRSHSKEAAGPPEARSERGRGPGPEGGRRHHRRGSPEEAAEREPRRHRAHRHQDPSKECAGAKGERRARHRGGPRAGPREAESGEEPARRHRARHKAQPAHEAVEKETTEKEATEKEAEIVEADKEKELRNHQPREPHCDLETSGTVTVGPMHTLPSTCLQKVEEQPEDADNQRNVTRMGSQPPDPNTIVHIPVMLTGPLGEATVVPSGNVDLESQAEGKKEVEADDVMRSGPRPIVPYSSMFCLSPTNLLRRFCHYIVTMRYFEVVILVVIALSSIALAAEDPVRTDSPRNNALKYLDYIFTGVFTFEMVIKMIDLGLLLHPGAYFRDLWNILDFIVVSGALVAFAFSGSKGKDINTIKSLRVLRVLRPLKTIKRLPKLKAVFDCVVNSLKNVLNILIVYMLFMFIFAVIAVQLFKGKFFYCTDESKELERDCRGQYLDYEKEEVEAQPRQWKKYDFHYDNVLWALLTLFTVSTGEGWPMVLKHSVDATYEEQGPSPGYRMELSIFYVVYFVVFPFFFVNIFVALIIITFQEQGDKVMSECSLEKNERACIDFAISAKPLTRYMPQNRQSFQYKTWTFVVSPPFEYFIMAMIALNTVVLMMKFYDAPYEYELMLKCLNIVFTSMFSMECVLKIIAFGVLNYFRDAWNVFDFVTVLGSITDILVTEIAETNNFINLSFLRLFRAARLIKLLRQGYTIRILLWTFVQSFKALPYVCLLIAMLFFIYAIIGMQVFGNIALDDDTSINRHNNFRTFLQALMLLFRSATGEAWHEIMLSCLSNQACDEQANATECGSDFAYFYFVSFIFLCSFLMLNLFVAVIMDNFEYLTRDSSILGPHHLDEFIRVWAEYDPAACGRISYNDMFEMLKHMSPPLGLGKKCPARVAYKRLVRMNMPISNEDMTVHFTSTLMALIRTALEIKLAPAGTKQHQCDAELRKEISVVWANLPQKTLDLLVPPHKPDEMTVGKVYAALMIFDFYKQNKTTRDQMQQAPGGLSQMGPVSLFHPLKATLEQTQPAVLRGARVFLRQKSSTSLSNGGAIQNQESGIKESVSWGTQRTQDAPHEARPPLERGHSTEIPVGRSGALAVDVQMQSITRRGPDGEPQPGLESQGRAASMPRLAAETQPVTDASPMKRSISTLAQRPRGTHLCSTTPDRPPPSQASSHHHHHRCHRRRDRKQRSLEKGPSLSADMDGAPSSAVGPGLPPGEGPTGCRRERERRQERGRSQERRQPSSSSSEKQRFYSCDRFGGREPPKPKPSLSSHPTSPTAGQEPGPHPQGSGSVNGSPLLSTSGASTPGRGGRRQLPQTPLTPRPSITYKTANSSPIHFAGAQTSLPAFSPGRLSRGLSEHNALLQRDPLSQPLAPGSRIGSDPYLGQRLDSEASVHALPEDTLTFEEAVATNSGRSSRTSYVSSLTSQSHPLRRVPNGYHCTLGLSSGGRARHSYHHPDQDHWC
T7 sequence (Q02410 whole entry): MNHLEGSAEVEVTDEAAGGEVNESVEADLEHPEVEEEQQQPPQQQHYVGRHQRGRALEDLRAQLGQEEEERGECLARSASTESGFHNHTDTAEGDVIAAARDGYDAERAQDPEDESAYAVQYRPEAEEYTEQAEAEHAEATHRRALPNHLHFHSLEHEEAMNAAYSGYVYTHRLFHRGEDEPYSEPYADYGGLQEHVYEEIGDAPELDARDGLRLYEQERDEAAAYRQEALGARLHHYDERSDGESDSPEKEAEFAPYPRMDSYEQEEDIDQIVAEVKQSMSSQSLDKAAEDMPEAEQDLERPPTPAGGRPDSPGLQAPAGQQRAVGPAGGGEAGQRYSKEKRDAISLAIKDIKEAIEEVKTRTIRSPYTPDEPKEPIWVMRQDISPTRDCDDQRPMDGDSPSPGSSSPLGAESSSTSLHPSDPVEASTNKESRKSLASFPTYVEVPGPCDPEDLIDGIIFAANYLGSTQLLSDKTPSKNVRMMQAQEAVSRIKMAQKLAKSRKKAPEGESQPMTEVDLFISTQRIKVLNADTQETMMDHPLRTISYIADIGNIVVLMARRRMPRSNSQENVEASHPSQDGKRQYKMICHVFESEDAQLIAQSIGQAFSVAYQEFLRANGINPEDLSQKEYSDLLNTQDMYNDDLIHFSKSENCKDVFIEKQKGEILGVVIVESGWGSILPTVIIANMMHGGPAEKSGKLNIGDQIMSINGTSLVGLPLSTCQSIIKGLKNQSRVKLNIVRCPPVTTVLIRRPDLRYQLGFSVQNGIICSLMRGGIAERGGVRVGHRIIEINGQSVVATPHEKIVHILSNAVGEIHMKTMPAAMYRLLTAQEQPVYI
T2 sequence (P41145 whole entry): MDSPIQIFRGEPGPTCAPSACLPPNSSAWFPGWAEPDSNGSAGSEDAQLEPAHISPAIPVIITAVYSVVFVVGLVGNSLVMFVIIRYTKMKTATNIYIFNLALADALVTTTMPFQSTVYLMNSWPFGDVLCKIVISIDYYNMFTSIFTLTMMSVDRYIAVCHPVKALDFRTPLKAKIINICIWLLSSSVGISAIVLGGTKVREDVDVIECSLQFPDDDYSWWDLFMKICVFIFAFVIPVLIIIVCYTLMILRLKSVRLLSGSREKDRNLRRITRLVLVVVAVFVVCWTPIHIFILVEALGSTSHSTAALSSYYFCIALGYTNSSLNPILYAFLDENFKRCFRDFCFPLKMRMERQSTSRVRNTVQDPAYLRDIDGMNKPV
T5 sequence (P63165 whole entry): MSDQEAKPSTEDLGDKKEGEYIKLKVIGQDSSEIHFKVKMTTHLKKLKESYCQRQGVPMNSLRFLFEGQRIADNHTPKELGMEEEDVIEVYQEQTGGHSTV
Mu-type opioid receptor, sequence (P35372 whole entry): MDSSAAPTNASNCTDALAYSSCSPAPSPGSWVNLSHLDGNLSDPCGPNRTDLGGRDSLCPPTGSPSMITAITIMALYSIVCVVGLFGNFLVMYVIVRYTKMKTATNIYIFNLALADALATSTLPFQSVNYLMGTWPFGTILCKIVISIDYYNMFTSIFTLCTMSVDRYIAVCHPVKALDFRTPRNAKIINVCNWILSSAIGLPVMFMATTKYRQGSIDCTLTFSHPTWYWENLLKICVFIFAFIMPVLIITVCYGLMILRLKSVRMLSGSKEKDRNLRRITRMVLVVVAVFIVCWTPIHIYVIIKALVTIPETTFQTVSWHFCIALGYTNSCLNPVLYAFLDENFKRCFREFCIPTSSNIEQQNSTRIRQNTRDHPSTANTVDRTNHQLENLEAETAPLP
Induced myeloid leukemia cell differentiation protein Mcl-1, sequence (Q07820 whole entry): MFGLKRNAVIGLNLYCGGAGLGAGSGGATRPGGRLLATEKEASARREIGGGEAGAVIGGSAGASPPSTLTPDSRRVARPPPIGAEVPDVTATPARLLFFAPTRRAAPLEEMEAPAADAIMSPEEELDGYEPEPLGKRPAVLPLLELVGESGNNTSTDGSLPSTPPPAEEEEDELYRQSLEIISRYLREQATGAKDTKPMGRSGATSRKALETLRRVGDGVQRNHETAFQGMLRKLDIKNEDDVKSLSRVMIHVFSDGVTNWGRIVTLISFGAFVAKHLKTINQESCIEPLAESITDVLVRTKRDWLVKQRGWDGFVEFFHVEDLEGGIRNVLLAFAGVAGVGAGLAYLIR

COc1ccc(S(=O)(=O)N(CC(=O)Nc2ccc(S(=O)(=O)N3CCOCC3)cc2)c2ccccc2)cc1
IC50 [1]: > 32 µM (inactive)
EC50 (Mu-type opioid receptor): > 32 µM (inactive)
IC50 [2]: 2.82 µM (active)
IC50 [3]: 4.04 µM
EC50 [4]: > 32 µM (inactive)
EC50 (Beta-galactosidase): > 31.5 µM (inactive)

CCOC(=O)c1sc2nc3c(SCCC(=O)O)cc(C(=O)c4cc(OC)ccc4O)cn3c(=O)c2c1C
IC50 [5]: < 0.195 µM (active)
IC50 [6]: 0.209 µM (active)
IC50 [7]: 1.29 µM (active)
IC50 [8]: 50 µM (inactive)
IC50 [9]: > 66.6 µM (inactive)
IC50 [10]: 8.13 µM (active)
IC50 [11]: 1.04 µM (active)
IC50 [12]: 2.02 µM (active)
IC50 [13]: 36.2 µM (active)
IC50 (NS3): 2.58 µM (active)
IC50 [14]: 7.26 µM (active)
IC50 [15]: 8.15 µM (active)
IC50 [16]: < 1.23 µM (inactive)
IC50 [17]: 0.48 µM (active)
IC50 (Prothrombin): 72.5 µM (active)
IC50 [18]: 101 µM (not active)
IC50 [19]: 1.24 µM (active)
IC50 [20]: 59.5 µM (active)
IC50 [21]: 5.54 µM (active)
IC50 [22]: 1.68 µM (active)
IC50 [23]: 4.87 µM (active)
